As a reminder, the IC50 is the concentration that inhibits the measured activity by half.

Calls of active or inactive are those of the source. No cut-off for these calls is given here.

Results on twelve compounds are retold here after ChEMBL document CHEMBL3576852, “Switch in Site of Inhibition: A Strategy for Structure-Based Discovery of Human Topoisomerase IIα Catalytic Inhibitors” (ACS Med Chem Lett, 2015).

Data set [1] can be described thus: Cytotoxicity against African green monkey Vero cells assessed as cell viability at 75 uM after 48 hrs by MTT assay. Type of data set: cell-based. The conditions noted are these: chlorocebus sabaeus, read-out: Activity. (In general: Tetrazolium assays rely on reduction of a dye to a coloured formazan, in cell work by metabolically active cells.)
The subject of another data set is HEK293. Briefly: Cytotoxicity against HEK293 cells assessed as reduction in cell viability after 48 hrs by MTT assay. Type of data set: functional. The note with it: Homo sapiens; for CC50: HEK293, 48 h, read-out: LC50 (the source's name).
Data set [2] has as its target T1, DNA topoisomerase 2-alpha (Homo sapiens, UniProt P11388). Briefly: Poisoning activity against human topoisomerase 2alpha assessed as induction of linear DNA formation at 100 uM incubated for 20 mins using small circular supercoiled pHOT DNA substrate by ethidium bromide staining based gel electrophoresis method.
Data set [3] has as its target T1, DNA topoisomerase 2-alpha. Briefly: Inhibition of human topoisomerase 2alpha assessed as reduction in enzyme-mediated kinetoplast DNA decatenation at 100 uM incubated for 30 mins by agarose gel electrophoresis method.
Data set [4] addresses T1, DNA topoisomerase 2-alpha. Briefly: Inhibition of human topoisomerase 2alpha assessed as reduction in enzyme-mediated relaxation of negatively supercoiled pRYG DNA at 100 uM incubated for 30 mins by ethidium bromide staining based gel electrophoresis method.
The target in data set [5] is T2, DNA topoisomerase 1 (Homo sapiens) (UniProt P11387).
T2 sequence (whole entry): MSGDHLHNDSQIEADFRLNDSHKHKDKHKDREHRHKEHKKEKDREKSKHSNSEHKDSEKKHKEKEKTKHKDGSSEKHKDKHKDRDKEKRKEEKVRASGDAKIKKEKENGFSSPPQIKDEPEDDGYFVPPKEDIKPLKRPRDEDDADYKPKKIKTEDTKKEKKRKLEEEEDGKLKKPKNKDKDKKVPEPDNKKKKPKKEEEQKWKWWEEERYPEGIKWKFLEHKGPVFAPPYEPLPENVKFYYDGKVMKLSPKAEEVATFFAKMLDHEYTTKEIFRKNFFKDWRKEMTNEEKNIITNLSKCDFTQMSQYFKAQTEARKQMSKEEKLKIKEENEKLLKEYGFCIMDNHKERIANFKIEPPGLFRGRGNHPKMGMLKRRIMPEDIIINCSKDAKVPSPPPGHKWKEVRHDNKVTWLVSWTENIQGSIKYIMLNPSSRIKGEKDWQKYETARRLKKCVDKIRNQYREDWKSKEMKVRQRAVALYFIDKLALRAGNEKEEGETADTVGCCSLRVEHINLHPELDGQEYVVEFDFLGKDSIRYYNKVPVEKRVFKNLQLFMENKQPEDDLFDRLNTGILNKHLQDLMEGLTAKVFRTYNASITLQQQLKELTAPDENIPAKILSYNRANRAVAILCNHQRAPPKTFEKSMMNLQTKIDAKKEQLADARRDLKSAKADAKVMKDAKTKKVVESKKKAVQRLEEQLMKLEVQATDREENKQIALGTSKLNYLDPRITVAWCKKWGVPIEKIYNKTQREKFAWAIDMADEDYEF
Kind of data set: Inhibition of human topoisomerase-1 assessed as reduction in enzyme-mediated relaxation of negatively supercoiled pRYG DNA at 100 uM incubated for 30 mins by ethidium bromide staining based gel electrophoresis method.

Data set [6] concerns the target T1, DNA topoisomerase 2-alpha. Briefly: Inhibition of etoposide-enhanced human topoisomerase 2alpha-mediated DNA cleavage at 100 to 400 uM incubated for 2 mins in presence of 100 uM etoposide by ethidium bromide staining based gel electrophoresis method.
Data set [7] concerns the target T1, DNA topoisomerase 2-alpha. The conditions noted are these: HEK293, 45 uM.
Description: Inhibition of topoisomerase 2alpha in HEK293 cells at 45 uM incubated for 48 hrs using TOP-FLASH plasmid substrate by ethidium bromide staining based agarose gel electrophoresis method
Data set [8] is described as follows: Cytotoxicity against African green monkey Vero cells assessed as reduction in cell viability after 48 hrs by MTT assay. The class given is cell-based. The conditions noted are these: chlorocebus sabaeus, read-out: LC50.
Data set [9] deals with T1, DNA topoisomerase 2-alpha. Briefly: Inhibition of etoposide-enhanced human topoisomerase 2alpha-mediated DNA cleavage at 100 to 400 uM pre-incubated for 2 mins with 100 uM etoposide followed by compound addition by ethidium bromide staining based gel electrophoresis method.
For data set [10], the target named is T1, DNA topoisomerase 2-alpha. Kind of data set: Inhibition of human topoisomerase 2alpha ATPase activity assessed as inorganic phosphate release at 100 uM using pUC19 DNA substrate by malachite green reagent based ATPase inhibition assay.
For data set [11], the target named is T1, DNA topoisomerase 2-alpha. Briefly: Inhibition of human topoisomerase 2alpha assessed as reduction in enzyme-mediated kinetoplast DNA decatenation incubated for 30 mins by agarose gel electrophoresis method.
Data set [12] has as its target T1, DNA topoisomerase 2-alpha. Briefly: Inhibition of topoisomerase 2alpha in HEK293 cells at 5 to 15 uM incubated for 48 hrs using TOP-FLASH plasmid substrate by ethidium bromide staining based agarose gel electrophoresis method. Type of data set: cell-based.
The next data set concerns Nucleic Acid. Briefly: Induction of DNA intercalation of Escherichia coli pUC19 DNA at 100 uM by ethidium bromide staining based agarose gel electrophoresis method. Type of data set: nucleic-acid assay.
The target of data set [13] is T1, DNA topoisomerase 2-alpha. Kind of data set: Inhibition of etoposide-enhanced human topoisomerase 2alpha-mediated DNA cleavage at 100 to 400 uM pre-incubated for 2 mins before 100 uM etoposide addition by ethidium bromide staining based gel electrophoresis method.
Data set [14] has as its target T1, DNA topoisomerase 2-alpha. Briefly: Inhibition of etoposide-enhanced human topoisomerase 2alpha-mediated DNA cleavage at 100 to 400 uM incubated for 2 mins with simultaneous addition of 100 uM etoposide by ethidium bromide staining based gel electrophoresis method.
A short description of data set [15]: Binding affinity to TOP-FLASH TCF/LEF transcription factor DNA (unknown origin) at 5 to 25 uM incubated for 2 hrs by UV-visible spectrophotometry.

T1 sequence (P11388 whole entry): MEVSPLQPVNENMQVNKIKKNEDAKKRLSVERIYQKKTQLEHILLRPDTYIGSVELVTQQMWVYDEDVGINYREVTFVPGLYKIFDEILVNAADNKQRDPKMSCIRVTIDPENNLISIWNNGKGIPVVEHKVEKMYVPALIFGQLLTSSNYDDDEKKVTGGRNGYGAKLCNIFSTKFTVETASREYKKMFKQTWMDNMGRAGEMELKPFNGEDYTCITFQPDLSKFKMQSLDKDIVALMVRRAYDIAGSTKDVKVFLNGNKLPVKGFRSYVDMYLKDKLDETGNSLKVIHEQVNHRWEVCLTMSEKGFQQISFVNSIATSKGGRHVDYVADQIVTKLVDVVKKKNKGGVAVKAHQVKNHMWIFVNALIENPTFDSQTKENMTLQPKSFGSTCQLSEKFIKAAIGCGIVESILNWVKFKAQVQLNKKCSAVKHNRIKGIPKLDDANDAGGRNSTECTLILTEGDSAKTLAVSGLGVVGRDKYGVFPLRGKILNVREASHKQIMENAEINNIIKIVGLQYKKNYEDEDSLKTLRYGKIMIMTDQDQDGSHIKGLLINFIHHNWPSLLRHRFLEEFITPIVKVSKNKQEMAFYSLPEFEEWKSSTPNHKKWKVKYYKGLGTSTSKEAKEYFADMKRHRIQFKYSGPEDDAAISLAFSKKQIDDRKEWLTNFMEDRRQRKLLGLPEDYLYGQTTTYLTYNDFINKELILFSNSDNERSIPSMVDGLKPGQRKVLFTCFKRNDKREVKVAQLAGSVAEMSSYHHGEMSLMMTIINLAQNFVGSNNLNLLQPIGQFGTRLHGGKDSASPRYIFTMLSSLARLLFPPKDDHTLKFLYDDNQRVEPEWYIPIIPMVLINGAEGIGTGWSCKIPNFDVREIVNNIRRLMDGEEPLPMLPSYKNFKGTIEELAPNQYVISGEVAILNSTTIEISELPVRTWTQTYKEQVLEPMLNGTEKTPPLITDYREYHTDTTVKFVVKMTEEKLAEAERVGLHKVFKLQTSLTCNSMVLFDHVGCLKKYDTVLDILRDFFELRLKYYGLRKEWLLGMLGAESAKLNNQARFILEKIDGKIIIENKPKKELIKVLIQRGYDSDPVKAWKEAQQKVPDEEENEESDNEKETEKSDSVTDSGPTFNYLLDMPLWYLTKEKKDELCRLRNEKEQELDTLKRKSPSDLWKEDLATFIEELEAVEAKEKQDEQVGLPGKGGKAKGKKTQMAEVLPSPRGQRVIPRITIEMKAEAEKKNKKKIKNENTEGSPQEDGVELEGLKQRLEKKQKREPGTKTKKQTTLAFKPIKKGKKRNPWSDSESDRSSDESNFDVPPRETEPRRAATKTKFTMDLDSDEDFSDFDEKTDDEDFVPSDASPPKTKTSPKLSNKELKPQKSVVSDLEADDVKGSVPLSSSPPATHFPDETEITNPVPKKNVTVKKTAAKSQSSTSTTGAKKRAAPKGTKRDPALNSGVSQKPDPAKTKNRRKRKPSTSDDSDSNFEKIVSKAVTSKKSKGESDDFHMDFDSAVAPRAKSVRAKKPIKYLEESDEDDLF

`COc1ccc(-c2nc3ccc(-c4ccccc4)cn3c2NC(C)(C)C)cc1`: the viability at 48 h, 75 µM in [1] is above 30%. Moreover, the Activity result with HEK293 was “Dose-dependent effect”. Also, the CC50 in the data set with HEK293 was determined as 13 µM. The outcome in data set [2] was inactive. Moreover, the inhibition entry in [3] and in data set [4] was “Active” each time. Also, the inhibition result in data set [5] was “inactive”.
Consider `COc1ccc(-c2ccc3nc(-c4ccc(Cl)cc4)c(NC(C)(C)C)n3c2)cc1`, for which the viability at 48 h, 75 µM in data set [1] is above 30%. Moreover, the Activity result in the data set on HEK293 was “Dose-dependent effect”. Also, the CC50 with HEK293 was 10 µM. For the same compound, the outcome in data set [2] was inactive. Further, the inhibition entry in data set [3] and in data set [4] was “Active” each time. Further, in data set [5], the inhibition result was “inactive”.
With `CC(C)(C)Nc1c(-c2ccc(-c3ccccc3)cc2)nc2cnccn12`, the inhibition entry in [3] and in data set [4] was “Active” in each case.
Take `CC(C)(C)Nc1c(-c2ccc(C(=O)O)cc2)nc2ccccn12`: the inhibition entry in [6] was “inactive”.
With `COc1cc([C@@H]2c3cc4c(cc3[C@@H](O[C@@H]3O[C@@H]5CO[C@@H](C)O[C@H]5[C@H](O)[C@H]3O)[C@H]3COC(=O)[C@H]23)OCO4)cc(OC)c1O` [ETOPOSIDE], the inhibition entry in data set [7] was “Active”. The CC50 at 48 h in data set [8] is 75 µM. In addition, the CC50 in the data set with HEK293 came out at 55 µM. Also, the outcome in [2] was Active.
As to `CC(C)(C)Nc1c(-c2ccc(-c3ccc(Cl)cc3)cc2)nc2ccccn12`, the inhibition entry in data set [3] and in [4] was “inactive” throughout.
Take `CC(=O)c1ccc(-c2ccc(-c3nc4cnccn4c3NC(C)(C)C)cc2)cc1`: the inhibition result in data set [3] and in [4] was “Active” each time.
For the compound `Cc1ccc(-c2ccc3nc(-c4ccc(Cl)cc4)c(NC(C)(C)C)n3c2)cc1`, the viability at 48 h, 75 µM in data set [1] is above 30%. In the data set with HEK293, the Activity result is “Dose-dependent effect” and the CC50 turned out to be 15 µM. In data set [2], the outcome was inactive. In addition, the inhibition result in data set [3] is “Active”. The inhibition entry in data set [4] is “Active”. The inhibition result in data set [5] is “inactive”.
Consider `CC(C)(C)Nc1c(-c2ccc(Cl)cc2)nc2ccc(-c3ccc(F)cc3)cn12`, for which the viability at 48 h, 75 µM in data set [1] was above 30%. Also, in the data set on HEK293, the Activity entry is “Dose-dependent effect” and the CC50 worked out at 8 µM. In data set [2], the result was inactive. Also, the inhibition result in data set [3] was “Active”. In addition, in [4], the inhibition entry is “Active”. Moreover, the inhibition entry in [5] is “inactive”.
As to `COc1ccc(-c2ccc(-c3nc4ccccn4c3NC(C)(C)C)cc2)cc1`, the inhibition result in data set [3] and in data set [4] was “inactive” in each case.
As to `CC(C)(C)Nc1c(-c2ccc(Cl)cc2)nc2ccc(-c3ccccc3)cn12`, the inhibition entry in data set [9], in data set [10], in data set [3], in data set [12], in [4] and in data set [14] was “Active” in each case. Besides, the viability at 48 h, 75 µM in [1] is above 30%. The Activity entry in the data set with HEK293 is “Dose-dependent effect”. Besides, in the data set with HEK293, the CC50 amounted to 10 µM. In data set [11], the IC50 came out at 55.4 µM. Besides, the result (in data set [2]; with Nucleic Acid; in data set [15]) was inactive. Moreover, the inhibition result in data set [13] was “Dose-dependent effect”. Also, the inhibition entry in [5] is “inactive”.
As for `CC(C)(C)Nc1c(-c2ccc(-c3ccc(F)cc3)cc2)nc2cnccn12`, the inhibition entry in [3] and in data set [4] was “inactive” throughout.
